Our source for the IC50 values is patent publication US7317037B2, “Progesterone receptor modulators comprising pyrrole-oxindole derivatives and uses thereof” (Wyeth, priority 2004, dated 2008).

The target of this assay is T1, progesterone receptor (PR) (Homo sapiens, UniProt P06401).
T1 construct: Effects of Progestins and Antiprogestins on Alkaline Phosphatase Activity in T47D Cells; endogenous in cells; host or cells: T47D cells
T1 sequence (P06401 1-933): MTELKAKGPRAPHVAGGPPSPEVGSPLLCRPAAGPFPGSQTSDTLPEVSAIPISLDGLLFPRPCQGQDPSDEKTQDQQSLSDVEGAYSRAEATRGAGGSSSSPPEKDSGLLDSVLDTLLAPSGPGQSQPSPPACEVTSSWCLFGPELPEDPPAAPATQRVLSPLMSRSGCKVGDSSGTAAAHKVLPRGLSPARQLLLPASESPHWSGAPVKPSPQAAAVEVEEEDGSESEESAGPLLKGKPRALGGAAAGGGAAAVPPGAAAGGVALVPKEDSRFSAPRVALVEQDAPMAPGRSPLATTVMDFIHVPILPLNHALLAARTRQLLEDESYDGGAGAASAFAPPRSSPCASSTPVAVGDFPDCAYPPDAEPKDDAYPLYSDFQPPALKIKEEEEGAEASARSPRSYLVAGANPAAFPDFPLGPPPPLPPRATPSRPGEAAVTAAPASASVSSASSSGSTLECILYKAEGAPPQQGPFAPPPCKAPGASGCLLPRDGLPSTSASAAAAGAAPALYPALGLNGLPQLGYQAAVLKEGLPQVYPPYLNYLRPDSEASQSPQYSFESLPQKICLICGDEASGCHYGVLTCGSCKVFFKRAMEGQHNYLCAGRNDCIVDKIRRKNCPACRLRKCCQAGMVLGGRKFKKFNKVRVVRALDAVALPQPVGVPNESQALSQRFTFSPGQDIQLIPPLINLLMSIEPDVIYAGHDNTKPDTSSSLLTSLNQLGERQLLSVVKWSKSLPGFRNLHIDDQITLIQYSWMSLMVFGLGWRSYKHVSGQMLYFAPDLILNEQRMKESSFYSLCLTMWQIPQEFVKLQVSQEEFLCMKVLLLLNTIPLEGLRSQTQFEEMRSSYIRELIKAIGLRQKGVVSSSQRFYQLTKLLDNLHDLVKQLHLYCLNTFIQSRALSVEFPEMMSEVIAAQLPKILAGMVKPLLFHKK
Nature of the assay: T47D cell alkaline phosphatase assay (antagonist mode). The class given is cell-based. The following applies: T47D cells, antagonist mode in the presence of 1 nM progesterone, 24 hours; read-out: IC50 (nM), T47D Cell Alkaline Phosphatase Assay. How it is done: A. Effects of Progestins and Antiprogestins on Alkaline Phosphatase Activity in T47D Cells (T47D Alkaline Phosphatase Assay)
Culture medium: DMEM:F12 (1:1) (GIBCO, BRL) supplemented with 5% (v/v) charcoal stripped fetal bovine serum (not heat-inactivated), 100 U/mL penicillin, 100 μg/mL streptomycin, and 2 mM GlutaMax (GIBCO, BRL).
Alkaline phosphatase assay buffer: I. 0.1M Tris-HCl, pH 9.8, containing 0.2% Triton X-100, 0.1M Tris-HCl, pH 9.8, containing 4 mM p-nitrophenyl phosphate (Sigma).
2. Cell Culture and Treatment:
Frozen T47D cells are thawed in a 37° C. water bath and diluted to 280,000 cells/mL in culture medium. To each well in a 96-well plate (Falcon, Becton Dickinson Labware), 180 μl of diluted cell suspension is added. Twenty μl of reference or test compounds diluted in the culture medium is then added to each well. When testing for progestin antagonist activity, reference antiprogestins or test compounds are added in the presence of 1 nM progesterone. The cells are incubated at 37° C. in a 5% CO2 humidified atmosphere for 24 hours. For high throughput screening, one concentration of each compound will be tested at 0.3 μg/mL. Based on an average molecular weight of 300 g/mol for the compounds in the library, the concentration is approximately 1 μM. Subsequently, active compounds will be tested in dose response assays to determine EC50 and IC50.
3. Alkaline Phosphatase Enzyme Assay:
At the end of treatment, the medium is removed from the plate. Fifty μl of assay buffer I is added to each well. The plates are shaken in a titer plate shaker for 15 min. Then 150 μl of assay buffer II is added to each well. Optical density measurements are taken at 5 min intervals for 30 min at a test wavelength of 405 nm.
4. Analysis of Dose-Response Data.
For reference and test compounds, a dose response curve is generated for dose vs. the rate of enzyme reaction (slope). Square root-transformed data are used for analysis of variance and nonlinear dose response curve fitting for both agonist and antagonist modes. Huber weighting is used to down-weight the effects of outliers. EC50 or IC50 values are calculated from the retransformed values. JMP software (SAS Institute, Inc.) is used for both one-way analysis of variance and non-4 linear dose response analysis in both single dose and dose response studies.
Progesterone and trimegestone are reference progestins and RU486 is the reference antiprogestin. All reference compounds are run in full dose response curves and the EC50 and IC50 values are calculated.
Consider `CC1(C)C(=O)Nc2c(F)cc(-c3ccc(C#N)[nH]3)cc21` [5-(7-fluoro-3,3-dimethyl-2-oxo-2,3-dihydro-1H-indol-5-yl)-1H-pyrrole-2-carbonitrile], for which the IC50 turned out to be 107 nM.

Regarding `Cn1c(C#N)ccc1-c1cc(F)c2c(c1)C(C)(C)C(=O)N2Cc1ccccc1` [5-(1-benzyl-7-fluoro-3,3-dimethyl-2-oxo-2,3-dihydro-1H-indol-5-yl)-1-methyl-1H-pyrrole-2-carbonitrile], the IC50 was 164 nM. The figure for `Cn1c(C#N)ccc1-c1cc(F)c2c(c1)C(C)(C)C(=O)N2C1CCCCC1` [5-(1-cyclohexyl-7-fluoro-3,3-dimethyl-2-oxo-2,3-dihydro-1H-indol-5-yl)-1-methyl-1H-pyrrole-2-carbonitrile] is 194 nM; for `Cn1c(C#N)ccc1-c1cc(F)c2c(c1)C(C)(C)C(=O)N2CCc1ccccc1` [5-[7-fluoro-3,3-dimethyl-2-oxo-1-(2-phenylethyl)-2,3-dihydro-1H-indol-5-yl]-1-methyl-1H-pyrrole-2-carbonitrile] it is 351 nM; for `Cn1c(C#N)ccc1-c1cc(F)c2c(c1)C1(CCC1)C(=O)N2` [5-(7′-fluoro-2′-oxo-1′,2′-dihydrospiro[cyclobutane-1,3′-indol]-5′-yl)-1-methyl-1H-pyrrole-2-carbonitrile] it is 2.75 nM. Turning to `Cn1c(C#N)ccc1-c1cc(F)c2c(c1)C(C)(C)C(=O)N2C1CCCC1` [5-(1-cyclopentyl-7-fluoro-3,3-dimethyl-2-oxo-2,3-dihydro-1H-indol-5-yl)-1-methyl-1H-pyrrole-2-carbonitrile], the IC50 is 25.2 nM. For `COC(=O)CN1C(=O)C(C)(C)c2cc(-c3ccc(C#N)n3C)cc(F)c21` [methyl [5-(5-cyano-1-methyl-1H-pyrrol-2-yl)-7-fluoro-3,3-dimethyl-2-oxo-2,3-dihydro-1H-indol-1-yl]acetate], the IC50 was determined as 48 nM. Regarding `CCCN1C(=O)C(C)(C)c2cc(-c3ccc(C#N)n3C)cc(F)c21` [5-(7-fluoro-3,3-dimethyl-2-oxo-1-propyl-2,3-dihydro-1H-indol-5-yl)-1-methyl-1H-pyrrole-2-carbonitrile], the IC50 was 26.5 nM. The figure for `CCN1C(=O)C(C)(C)c2cc(-c3ccc(C#N)n3C)cc(F)c21` [5-(1-ethyl-7-fluoro-3,3-dimethyl-2-oxo-2,3-dihydro-1H-indol-5-yl)-1-methyl-1H-pyrrole-2-carbonitrile] is 29.5 nM.

In the case of `CC(C)CN1C(=O)C(C)(C)c2cc(-c3ccc(C#N)n3C)cc(F)c21` [5-(7-fluoro-1-isobutyl-3,3-dimethyl-2-oxo-2,3-dihydro-1H-indol-5-yl)-1-methyl-1H-pyrrole-2-carbonitrile], the IC50 came out at 29.9 nM. The figure for `CC(C)N1C(=O)C(C)(C)c2cc(-c3ccc(C#N)n3C)cc(F)c21` [5-(7-fluoro-1-isopropyl-3,3-dimethyl-2-oxo-2,3-dihydro-1H-indol-5-yl)-1-methyl-1H-pyrrole-2-carbonitrile] is 13 nM. The figure for `Cn1c(C#N)ccc1-c1ccc2c(c1F)C1(CC1)C(=O)N2` [5-(4′-fluoro-2′-oxo-1′,2′-dihydrospiro[cyclopropane-1,3′-indol]-5′yl)-1-methyl-1H-pyrrole-2-carbonitrile] is 7.8 nM; for `Cn1c(C#N)ccc1-c1cc(F)c2c(c1)C1(CC1)C(=O)N2` [5-(7′-fluoro-2′-oxo-1′,2′-dihydrospiro[cyclopropane-1,3′-indol]-5′-yl)-1-methyl-1H-pyrrole-2-carbonitrile] it is 10.8 nM; for `CC(C)(C)OC(=O)n1c(C#N)ccc1-c1cc(F)c2c(c1)C(C)(C)C(=O)N2` [tert-butyl 2-cyano-5-(7-fluoro-3,3-dimethyl-2-oxo-2,3-dihydro-1H-indol-5-yl)-1H-pyrrole-1-carboxylate] it is 125 nM. To `Cn1c(C#N)ccc1-c1cc(F)c2c(c1)CC(=O)N2` [5-(7-fluoro-2-oxo-2,3-dihydro-1H-indol-5-yl)-1-methyl-1H-pyrrole-2-carbonitrile] belongs 109 nM; to `CN1C(=O)C(C)(C)c2cc(-c3ccc(C#N)n3C)cc(F)c21` [5-(7-Fluoro-1,3,3-trimethyl-2-oxo-2,3-dihydro-1H-indol-5-yl)-1-methyl-1H-pyrrole-2-carbonitrile], 22.3 nM. For the molecule `C=CCN1C(=O)C(C)(C)c2cc(-c3ccc(C#N)n3C)cc(F)c21` [5-(1-allyl-7-fluoro-3,3-dimethyl-2-oxo-2,3-dihydro-1H-indol-5-yl)-1-methyl-1H-pyrrole-2-carbonitrile], the IC50 is 4.5 nM. As for `C#CCN1C(=O)C(C)(C)c2cc(-c3ccc(C#N)n3C)cc(F)c21` [5-(7-fluoro-3,3-dimethyl-2-oxo-1-prop-2-yn-1-yl-2,3-dihydro-1H-indol-5-yl)-1-methyl-1H-pyrrole-2-carbonitrile], the IC50 amounted to 30 nM. Turning to `Cn1c(C#N)ccc1-c1ccc2c(c1F)C(C)(C)C(=O)N2` [5-(4-fluoro-3,3-dimethyl-2-oxo-2,3-dihydro-1H-indol-5-yl)-1-methyl-1H-pyrrole-2-carbonitrile], the half-inhibitory concentration (IC50) is 30 nM. To `CCC1(CC)C(=O)Nc2c(F)cc(-c3ccc(C#N)n3C)cc21` [5-(3,3-diethyl-7-fluoro-2-oxo-2,3-dihydro-1H-indol-5-yl)-1-methyl-1H-pyrrole-2-carbonitrile] belongs 4.95 nM; to `Cn1c(C#N)ccc1-c1cc(F)c2c(c1)C1(CCCC1)C(=O)N2` [5-(7′-fluoro-2′-oxo-1′,2′-dihydrospiro[cyclopentane-1,3′-indol]-5′-yl)-1-methyl-1H-pyrrole-2-carbonitrile], 3.2 nM.
